{"source": "patent US12097210B2", "about": "“Concomitant administration of glucocorticoid receptor modulators and CYP3A inhibitors” (Corcept Therapeutics, Inc., priority 2017, dated 2024)", "type_in_all_cases": "in vivo, human", "key": {"[1]": {"experiment": "Example 3: effect of ketoconazole 200 mg twice daily on PK of mifepristone 600 mg once daily and metabolites, with food", "protocol": "A single dose of ketoconazole was administered on Day −1.\nThe study was a two period study design.\nConcentrations of RU 42633 and RU 42848 were similar on Day 17 and Day 12."}, "[2]": {"experiment": "Example 2: safety (adverse events, physical examinations, laboratory tests)", "protocol": "Safety was assessed by spontaneously reported adverse events, physical examinations, and routine clinical laboratory tests. Adverse event data were tabulated. Physical findings and laboratory test results were listed by subject."}, "[3]": {"experiment": "Example 1: effect of oral ketoconazole (400 mg OD or 200 mg BID) on plasma pharmacokinetics of a 300 mg single dose of mifepristone, fasted", "conditions": "Keto 200 mg BID vs 400 mg OD", "description": "This study was an open-label study in healthy male subjects.\nHealthy male volunteers between the ages of 18 to 45 years of age with a body mass index (BMI) ranging between 19 and 32 kg/m2 and a weight of at least 60 kg (132 lbs) were enrolled. Subjects had no clinically significant abnormal findings on the physical examination, ECG, blood pressure, heart rate, medical history, or clinical laboratory results during screening. The QTc interval at screening was less than 450 msec.\nIn cohort 1, six subjects received ketoconazole 400 mg OD for 14 days.\nSubjects remained in the clinic on Days 2 and 3 to receive 400 mg OD oral ketoconazole fasted, and for safety evaluation and collection of blood pharmacokinetic (PK) samples. Subjects were discharged from the clinic on Day 4 following administration of 400 mg OD oral ketoconazole fasted, and returned to the clinic the mornings of Days 5 through 13 to receive 400 mg OD oral ketoconazole fasted.\nIn cohort 2, six subjects received ketoconazole 200 mg BID for 14 days. […] All 12 subjects completed the study. […]\nSubjects in both cohorts returned to the study center on Day 15 for safety monitoring, and completion of the Termination Visit procedures, followed by discharge from the study. Safety was assessed by spontaneously reported adverse events, physical examinations, and routine clinical laboratory tests. […]"}, "[4]": {"experiment": "Examples 5-8: liver function of patient with excess cortisol on ketoconazole and reduced mifepristone dose"}, "[5]": {"conditions": "Test: Day 17, 600 mg mifepristone OD + 200 mg Ketoconazole BID, Reference: Day 12, 600 mg mifepristone OD, geometric mean ratio"}}, "data": [{"smiles": "CC#C[C@]1(O)CC[C@H]2[C@@H]3CCC4=CC(=O)CCC4=C3[C@@H](c3ccc(N(C)C)cc3)C[C@@]21C", "note": "[Mifepristone, 11β-(4-dimethylaminophenyl)-17β-hydroxy-17α-(1-propynyl)-estra-4,9-dien-3-one]", "values": [{"measurement": "concentrations on Day 17 compared with Day 12", "setting": "[1]; 600 mg mifepristone daily with 200 mg ketoconazole twice daily vs mifepristone alone", "value": "higher"}, {"measurement": "trough concentrations through the start of ketoconazole administration (Day 13)", "setting": "[1]; FIG. 1, 600 mg mifepristone OD", "value": "increasing day-by-day"}, {"measurement": "difference of time 0 (pre-dose) plasma concentration, Day 17 vs Day 12", "setting": "[1]; FIG. 2, before and after inhibition of CYP3A by ketoconazole", "value": "~500", "unit": "ng/mL"}, {"measurement": "Ratio % Test/Reference, AUC0-24", "setting": "[1]; [5]", "value": 138.01, "unit": "%"}, {"measurement": "Ratio % Test/Reference, Cmax", "setting": "[1]; [5]", "value": 127.59, "unit": "%"}, {"measurement": "TEAEs considered possibly or probably related to mifepristone administration", "setting": "[2]; four subjects in Cohort 2 (600 mg OD)", "value": "dizziness, nausea, vomiting, dry mouth, and rash"}, {"measurement": "subjects experiencing at least 1 TEAE", "setting": "[2]; twelve subjects, mifepristone 300 or 600 mg OD 8 days, ketoconazole 400 mg Day 8", "value": 50, "unit": "%"}, {"measurement": "Mean Ratio AUCtotal (C2/C1)", "setting": "[3]; geometric mean ratio (AUCinf in text)", "value": 1.05}, {"measurement": "Mean Ratio Cmax (C2/C1)", "setting": "[3]; geometric mean ratio", "value": 1.15}, {"measurement": "liver function of the patient", "setting": "[4]; Example 5: mifepristone reduced from 1200 mg to 900 mg daily with ketoconazole", "value": "not significantly compromised"}, {"measurement": "liver function of the patient", "setting": "[4]; Example 6: mifepristone reduced from 900 mg to 600 mg daily with ketoconazole", "value": "not significantly compromised"}, {"measurement": "liver function of the patient", "setting": "[4]; Example 7: mifepristone reduced from 600 mg to 300 mg daily with ketoconazole", "value": "not significantly compromised"}, {"measurement": "liver function of the patient", "setting": "[4]; Example 8: mifepristone reduced from 1500 mg to 1200 mg daily with ketoconazole", "value": "not significantly compromised"}]}]}
